# “And” between values parts separate entries of the source, which are not always exact repeats. Equal values may be shown once. Read-outs that look alike come from different tables or passages of the source.
# Assays:
# [1] = Dissolution of solvent-cast protein films (Example 1); assay type: physicochemical; settings: film cast from 5% solution in formic acid; 37° C., 0.1N HCl pH 1.5 for 90 minutes, then pH 6.8 up to 330 minutes
# Protocol: In the following experiment 5% solutions of various proteins were dissolved in formic acid and solvent-casted into protein films. The proteins were selected from gelatin, BSA (albumin), pea, soy, whey and zein (corn). The protein films were then dissolved at 37° C. in 0.1N HCl with a pH of 1.5 for 90 minutes, after which the pH was adjusted to 6.8 over a time period up to 330 minutes.
# The dissolution of the protein films was evaluated using spectrophotometry (absorbance at 280 nm), and plotted as a function of time.
# [2] = Solubility statements in the description; assay type: physicochemical
# [3] = target: T1, BSA (Bos taurus, UniProt P02769); test: Tryptophan quenching binding of Flubendazole to BSA; set-up: species or system bovine; settings: read-out: dissociation constant Kd
# T1 construct: from tissue; host or cells: bovine origin (tissue or fluid not specified)
# T1 sequence (P02769 25-607): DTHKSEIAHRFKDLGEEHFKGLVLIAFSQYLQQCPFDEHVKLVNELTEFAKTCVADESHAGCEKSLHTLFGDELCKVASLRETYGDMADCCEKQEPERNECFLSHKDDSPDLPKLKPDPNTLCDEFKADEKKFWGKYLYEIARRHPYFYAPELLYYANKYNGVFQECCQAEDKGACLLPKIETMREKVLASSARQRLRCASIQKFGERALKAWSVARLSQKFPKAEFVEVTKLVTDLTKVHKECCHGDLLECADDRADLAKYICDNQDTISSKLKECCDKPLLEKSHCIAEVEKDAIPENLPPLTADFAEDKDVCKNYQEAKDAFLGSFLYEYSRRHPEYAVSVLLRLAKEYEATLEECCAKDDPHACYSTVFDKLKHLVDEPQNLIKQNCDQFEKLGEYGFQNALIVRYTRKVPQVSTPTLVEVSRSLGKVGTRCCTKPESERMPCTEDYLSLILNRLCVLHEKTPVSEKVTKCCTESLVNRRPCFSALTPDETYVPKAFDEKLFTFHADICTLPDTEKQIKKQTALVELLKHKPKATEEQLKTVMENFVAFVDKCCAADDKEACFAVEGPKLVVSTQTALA
# Text: For the following experiment the binding strength of a protein based excipient to a model API was verified. For the purposes of this experiment, BSA was the protein source, Flubendazole was used as the model API, formic acid served as the solvent and spray drying was chosen as the drying method.
# [4] = Equilibrium solubility of Flubendazole in FaSSGF (RP-HPLC); assay type: physicochemical; settings: FaSSGF (fasted state simulated gastric fluid), pH 1.6, fassgf or other biorelevant, thermodynamic from solid; FaSSGF (1.6 pH), excess Flubendazole rotated up to 72 hours; read-out: equilibrium solubility in FaSSGF medium
# Protocol: The dissolution profile and supersaturation state (i.e., the available concentration) was tested using a dissolution media which simulates the juice present in the human stomach before (i.e. fasted state) eating food; namely FaSSGF (1.6 pH) available from Bio-relevant®. A suitable method for determining the concentration is Reversed phase High-performance liquid chromatography (RP-HPLC), which separates molecules based on hydrophobicity causing different retention times as they flow out the column. The further working principles of RP-HPLC are known in the art. The RP-HPLC set-up used an Eclipse Zorbax Agilent 5 μm (4.6×150 mm) column with a flow Rate of 1 ml/min. The injection volume was 20 μl with the mobile phase containing ACN/TFA 0.1% (55:45) and an elution time of Flubendazole about ±1.9 min. The wavelength for measurements was set at 280 nm.
# Prior to the experiments, the solubility of Flubendazole in FaSSGF was determined to serve as the baseline reference value. The reference solution was prepared by bringing an excess of Flubendazole in 8 ml FaSSGF solution. This solution was rotated during 72 hours and a 1 ml sample was taken every 24 hours. These reference samples were filtered through a Polytetrafluoroethylene (PTFE) 0.45 μm filter to determine the concentration of Flubendazole through the tested RP-HPLC method. […]
compound,measurement,setting,value
gelatin,dissolution level of protein film,[1],(near) complete dissolution
CCCS(=O)(=O)Nc1ccc(F)c(C(=O)c2c[nH]c3ncc(-c4ccc(Cl)cc4)cc23)c1F [Vemurafenib],solubility in methanol,[2],does not dissolve
COC(=O)Nc1nc2cc(C(=O)c3ccc(F)cc3)ccc2[nH]1 [Flubendazole],Kd,[3]; pH 1.0,234 µM and ~234 µM
same,Kd,[3]; pH 4.0,133 µM and ~133 µM
same,Kd,[3]; pH 7.0,116 µM and ~116 µM
same,solubility thermodynamic at 72 h,[4],11.2 µg/mL
Zein,dissolution level of protein film,[1],about 10%

# — patent US12582717B2, “Protein based excipient for active pharmaceutical ingredients” (ROUSSELOT B.V., priority 2016, dated 2026)
